Reference: patent US20140050670A1, “MULTIFUNCTIONAL NANOPARTICLES” (THE UNIVERSITY OF WESTERN AUSTRALIA, priority 2010, published 2014)

Experiments:
[1] = humans; cited from earlier work
[2] = test system: L-, T- and N-type Ca^2+ channels; conditions: cited from earlier work
[3] = rats, 24 hr after oral administration; cited from earlier work
PC12 cells = test: Intracellular calcium quantification after glutamate challenge (Fura-2); format: cell-based, rat; conditions: glutamate 10 mM, 24 hr; nanospheres 25 μg mL^−1, free lomerizine 1 μM; relative to ENP; dihydrochloride
Description: The pH in early endosomes is mildly acidic and falls below 5 as endosomes mature, so release of lomerizine from nanospheres could be triggered under these conditions. Here, we administered lomerizine to PC12 cells using nanospheres, and measured intracellular calcium concentrations after glutamate challenge to see if intracellular release of lomerizine could be employed for neuroprotection. PC12 cells express both N- and L-type VGCCs, but not T-type channels, and in undifferentiated PC12 cells, glutamate exposure (1-10 mm) over 24 hr causes oxidative stress and increased [Ca^2+]i.
Cells receiving nanosphere treatments were incubated with nanospheres containing lomerizine, with or without modification with PEI (LNP+PEI and LNP−PEI respectively), or nanospheres containing no lomerizine but with PEI modification (ENP). […]
For experiments, cells were seeded in 24-well plates containing 10 mm glass coverslips coated with poly(l-lysine) at a cell density of 5.0×10^4 mL^−1. […] After a further 24 hr, [Ca^2+]i was quantified as follows. […] Fluorescent data were measured on a Hamamatsu Orca ER digital camera attached to an inverted Nikon TE2000-U microscope, and analysed using Metamorph v6.3. […] [Ca^2+]i was calculated according to the equation: […]

[4] = test system: NMDA, kainate or AMPA binding sites; conditions: cited from earlier work

For `COc1ccc(CN2CCN(C(c3ccc(F)cc3)c3ccc(F)cc3)CC2)c(OC)c1OC.Cl.Cl` [Lomerizine, 1-[bis(4-fluorophenyl)methyl]-4-(2,3,4-trimethoxybenzyl)piperazine dihydrochloride], the elimination half-life [1] is given as 108 h, the “calcium channel blockade selectivity” value [2] is given as “selectively blocks L- and T-type Ca^2+ channels, but not N-type channels” and the “dose excreted in the feces” value [3] is given as 51.7%. For the same compound, the “dose excreted in urine” value [3] was 4.1%, the “intracellular calcium [Ca^2+]i after glutamate” value (PC12 cells) was “significant (p≦0.001) decrease” and the “affinity for NMDA, kainate or AMPA binding sites” value [4] was “no reported affinity”.
